Measured values reported in ChEMBL document CHEMBL4351016 (Eur J Med Chem, 2019).
Calls of active or inactive are those of the source. No cut-off for these calls is given here.

Tests used:
[1] = system: CWR22R; assay: Antiproliferative activity against AR-positive human 22Rv1 cells harboring ARE14 construct assessed as growth inhibition after 24 hrs by resazurin dye based fluorescence assay; format: functional; settings: 22Rv1, 24 h
[2] = target: T1, Androgen receptor (Homo sapiens) (UniProt P10275); assay: Inhibition of AR transcriptional activity in AR-positive human 22Rv1 cells harboring ARE14 construct assessed as decrease in PSA protein expression at 5 uM after 24 hrs by immunoblot analysis
T1 sequence (whole entry): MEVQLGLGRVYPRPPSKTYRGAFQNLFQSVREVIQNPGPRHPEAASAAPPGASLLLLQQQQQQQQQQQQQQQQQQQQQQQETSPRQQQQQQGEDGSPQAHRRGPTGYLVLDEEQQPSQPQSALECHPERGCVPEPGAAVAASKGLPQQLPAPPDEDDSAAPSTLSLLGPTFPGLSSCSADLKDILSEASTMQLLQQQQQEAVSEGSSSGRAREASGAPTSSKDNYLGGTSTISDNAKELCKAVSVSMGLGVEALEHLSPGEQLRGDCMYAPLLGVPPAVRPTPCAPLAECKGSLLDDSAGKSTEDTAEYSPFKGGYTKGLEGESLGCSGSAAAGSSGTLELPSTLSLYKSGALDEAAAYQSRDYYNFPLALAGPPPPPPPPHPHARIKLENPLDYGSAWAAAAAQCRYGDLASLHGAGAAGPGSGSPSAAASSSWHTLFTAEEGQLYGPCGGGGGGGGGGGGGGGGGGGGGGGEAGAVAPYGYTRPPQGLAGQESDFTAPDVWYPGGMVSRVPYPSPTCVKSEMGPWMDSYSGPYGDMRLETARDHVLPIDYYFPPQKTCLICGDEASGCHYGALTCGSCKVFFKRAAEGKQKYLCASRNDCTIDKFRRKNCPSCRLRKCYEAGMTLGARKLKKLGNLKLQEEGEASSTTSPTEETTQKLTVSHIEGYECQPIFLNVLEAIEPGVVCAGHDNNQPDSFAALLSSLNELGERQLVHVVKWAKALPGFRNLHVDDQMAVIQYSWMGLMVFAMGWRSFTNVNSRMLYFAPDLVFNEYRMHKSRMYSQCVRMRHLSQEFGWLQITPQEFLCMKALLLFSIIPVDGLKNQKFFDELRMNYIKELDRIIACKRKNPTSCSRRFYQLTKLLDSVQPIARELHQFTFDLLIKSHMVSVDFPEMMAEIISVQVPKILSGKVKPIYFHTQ

[3] = system: LNCaP C4-2; assay: Antiproliferative activity against AR-positive human C4-2 cells assessed as growth inhibition after 72 hrs by resazurin dye based fluorescence assay; format: functional; settings: LNCaP C4-2, 72 h
[4] = system: PC-3; assay: Antiproliferative activity against AR-negative human PC3 cells assessed as growth inhibition after 72 hrs by resazurin dye based fluorescence assay; format: functional; settings: PC-3, 72 h
[5] = system: BJ; assay: Antiproliferative activity against human BJ cells assessed as growth inhibition after 24 hrs by resazurin dye based fluorescence assay; format: functional
[6] = system: CWR22R; assay: Antiproliferative activity against AR-positive human 22Rv1 cells harboring ARE14 construct assessed as growth inhibition after 72 hrs by resazurin dye based fluorescence assay; format: functional; settings: 22Rv1, 72 h
[7] = system: VCaP; assay: Antiproliferative activity against AR-positive human VCaP cells assessed as growth inhibition after 72 hrs by resazurin dye based fluorescence assay; format: functional
[8] = target: T1, Androgen receptor (Homo sapiens); assay: Inhibition of AR transcriptional activity in AR-positive human 22Rv1 cells harboring ARE14 construct assessed as downregulation of NKX3.1 protein expression at 5 uM after 24 hrs by immunoblot analysis
[9] = system: CWR22R; assay: Effect on AR-V7 protein expression in AR-positive human 22Rv1 cells harboring ARE14 construct at 5 uM after 24 hrs by immunoblot analysis; format: functional, cell-based

Row | SMILES | GI50 [1] | PSA protein decrease (active/not active) [2] | GI50 [3] | GI50 [4] | GI50 [5] | GI50 [6] | GI50 [7] | NKX3.1 protein downregulation (active/not active) [8] | Activity [9]
1 | CC(=O)O[C@H]1CC[C@@]2(C)C(=CC[C@@H]3[C@@H]2CC[C@]2(C)c4c(C)nc5nc6cc(C)c(C)cc6n5c4C[C@@H]32)C1 | > 50 µM | inactive | 36.5 µM | > 50 µM | > 50 µM | 40 µM | > 50 µM | inactive | inactive
2 | Cc1nc(N2CCc3ccccc3C2)nc2c1[C@@]1(C)CC[C@H]3[C@@H](CC=C4C[C@@H](O)CC[C@@]43C)[C@@H]1C2 | > 50 µM |  | 12.7 µM | 7.8 µM | 22.5 µM | 12.4 µM | 20.7 µM | Active | inactive
3 | CC(=O)O[C@H]1CC[C@@]2(C)C(=CC[C@@H]3[C@@H]2CC[C@@]2(C)[C@H]3C[C@@H]3C(=O)[C@@]2(C)Nc2nc4ccc(Cl)cc4n23)C1 |  |  | > 50 µM | > 50 µM |  | > 50 µM |  |  | 
4 | CC(=O)O[C@H]1CC[C@@]2(C)C(=CC[C@@H]3[C@@H]2CC[C@@]2(C)[C@H]3C[C@@H]3C(=O)[C@@]2(C)Nc2nc4cc(Cl)ccc4n23)C1 |  |  | > 50 µM | > 50 µM |  | > 50 µM |  |  | 
5 | CC(=O)O[C@H]1CC[C@@]2(C)C(=CC[C@@H]3[C@@H]2CC[C@]2(C)c4c(C)nc5nc6ccc(Cl)cc6n5c4C[C@@H]32)C1 | > 50 µM | inactive | 24.4 µM | > 50 µM | 50 µM | 29.9 µM | > 50 µM | inactive | inactive
6 | CC(=O)O[C@H]1CC[C@@]2(C)C(=CC[C@@H]3[C@@H]2CC[C@]2(C)c4c(C)nc5c(c4C[C@@H]32)c2ccccc2n5C)C1 | > 50 µM | inactive | > 50 µM | > 50 µM | > 50 µM | > 50 µM | > 50 µM | inactive | inactive
7 | CC(=O)O[C@H]1CC[C@@]2(C)C(=CC[C@@H]3[C@@H]2CC[C@@]2(C)[C@H]3C[C@@H]3C(=O)[C@@]2(C)Nc2nc4ccccc4n23)C1 | > 50 µM | inactive | 18 µM | > 50 µM | > 50 µM | 5.4 µM | > 50 µM | inactive | inactive
8 | CC(=O)O[C@H]1CC[C@@]2(C)C(=CC[C@@H]3[C@@H]2CC[C@]2(C)c4c(C)nc5nc6cc(Cl)ccc6n5c4C[C@@H]32)C1 | > 50 µM | inactive | > 50 µM | > 50 µM | > 50 µM | > 50 µM | > 50 µM | inactive | inactive
9 | CC(=O)O[C@H]1CC[C@@]2(C)C(=CC[C@H]3[C@@H]4C[C@@H](Nc5nc6ccccc6[nH]5)[C@@H](C(C)=O)[C@@]4(C)CC[C@@H]32)C1 | > 50 µM | inactive | 11.9 µM | 29.5 µM | 48.3 µM | 6.2 µM | 20.3 µM | inactive | inactive
10 | COc1ccc2c(C)c3c(nc2n1)C[C@H]1[C@@H]2CC=C4C[C@@H](O)CC[C@]4(C)[C@H]2CC[C@]31C | > 50 µM | Active | 1.1 µM | > 50 µM | > 50 µM | 4.3 µM | > 50 µM | Active | inactive
